Results reported in paper PMC2974784 (Pharmacological research : the official journal of the …, 2010).
Where a name gives a salt, the structure may show the parent alone. Read-outs that look alike come from different tables or passages of the source.

Columns and labels:
Format in all cases: cell-based
P2Y1 receptor [1] = molecular target: T1, P2Y1 receptor (Rattus norvegicus, UniProt P49651); assay: agonist-induced intracellular calcium mobilization in RBL-2H3 cells
P2Y13 receptor = molecular target: T2, P2Y13 receptor (Rattus norvegicus, UniProt Q6GUG4)
T2 sequence (Q6GUG4 1-336): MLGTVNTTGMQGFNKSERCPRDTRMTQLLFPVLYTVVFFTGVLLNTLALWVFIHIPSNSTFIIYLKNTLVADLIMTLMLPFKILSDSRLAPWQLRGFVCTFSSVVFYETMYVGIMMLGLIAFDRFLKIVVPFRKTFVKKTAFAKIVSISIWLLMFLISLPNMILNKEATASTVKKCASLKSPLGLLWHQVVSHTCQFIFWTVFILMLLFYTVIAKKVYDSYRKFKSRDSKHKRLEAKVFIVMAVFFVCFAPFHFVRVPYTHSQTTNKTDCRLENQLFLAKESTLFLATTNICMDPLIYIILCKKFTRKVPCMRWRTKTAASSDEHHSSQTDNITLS

P2Y1 receptor [2] = molecular target: T1, P2Y1 receptor
P2Y1 receptor [3] = molecular target: T1, P2Y1 receptor; remark: listed apart in the source

T1 sequence (P49651 whole entry): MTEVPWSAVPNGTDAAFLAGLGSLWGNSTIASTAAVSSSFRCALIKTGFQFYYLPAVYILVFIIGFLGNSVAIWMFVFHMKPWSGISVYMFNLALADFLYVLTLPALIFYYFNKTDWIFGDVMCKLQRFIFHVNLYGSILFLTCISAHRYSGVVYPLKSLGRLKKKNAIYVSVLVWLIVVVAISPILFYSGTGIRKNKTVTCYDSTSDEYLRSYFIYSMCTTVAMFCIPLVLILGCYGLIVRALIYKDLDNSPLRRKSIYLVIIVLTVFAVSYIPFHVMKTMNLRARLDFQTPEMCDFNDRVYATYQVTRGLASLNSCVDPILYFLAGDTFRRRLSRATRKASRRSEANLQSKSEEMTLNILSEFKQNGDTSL

CSc1nc(N)c2ncn([C@@H]3O[C@H](COP(=O)(O)OP(=O)(O)O)[C@@H](O)[C@H]3O)c2n1 [2-MeSADP]
EC50 (P2Y1 receptor [1]): 37.8 ± 11.3 nM

Nc1ncnc2c1ncn2[C@@H]1O[C@H](COP(=O)(O)OP(=O)(O)O)[C@@H](O)[C@H]1O [ADP]
EC50 (P2Y13 receptor): 4700 ± 800 nM | EC50 (P2Y1 receptor [2]): 278 ± 42 nM

CSc1nc(N)c2ncn([C@H]3[C@H](O)[C@H](O)[C@]4(COP(=O)(O)OP(=O)(O)O)C[C@H]34)c2n1 [MRS2365, [[(1R,2R,3S,4R,5S)-4-[6-amino-2-(methylthio)-9H-purin-9-yl]-2,3-dihydroxybicyclo[3.1.0]hex-1-yl]methyl]diphosphoric acid mono ester trisodium salt]
EC50 (P2Y1 receptor [3]): 4.5 ± 0.8 nM
